Reference: patent publication EP1083874B1, “Use of a compound for the preparation of a medicament for treating alopecia or promoting hair growth in an animal” (GPI NIL Holdings, Inc., priority 1998, dated 1999)

Target: FKBP12 (Homo sapiens, UniProt P62942)
Assay: Ki test procedure: inhibition of peptidyl-prolyl isomerase (rotamase) activity, chymotrypsin-coupled assay
Type: biochemical
Conditions: apparent Ki
Source text: The inhibition of the prolyl peptidyl cis-trans isomerase activity of FKBP may be measured as an indicator of this affinity.
Inhibition of the peptidyl-prolyl isomerase (rotamase) activity of the compounds used in the pharmaceutical compositions can be evaluated by known methods described in the literature (Harding et al., Nature, 1989, 341:758-760; Holt et al. J. Am. Chem. Soc., 115:9923-9938).
The cis-trans isomerization of an alanine-proline bond in a model substrate, N-succinyl-Ala-Ala-Pro-Phe-p-nitroanilide, is monitored spectrophotometrically in a chymotrypsin-coupled assay, which releases para-nitroanilide from the trans form of the substrate. The inhibition of this reaction caused by the addition of different concentrations of inhibitor is determined, and the data is analyzed as a change in first-order rate constant as a function of inhibitor concentration to yield the apparent Ki values.
In a plastic cuvette are added […] of ice cold assay buffer (25 mM HEPES, pH 7.8, 100 mM NaCl), 10 mL of FKBP (2.5 mM in 10 mM Tris-Cl pH 7.5, 100 mM NaCl, 1 mM dithiothreitol), 25 mL of chymotrypsin (50 mg/ml in 1 mM HCl) and […] of test compound at various concentrations in dimethyl sulfoxide. The reaction is initiated by the addition of 5 mL of substrate (succinyl-Ala-Phe-Pro-Phe-para-nitroanilide, 5 mg/mL in 2.35 mM LiCl in trifluoroethanol).
The absorbance at 390 nm versus time is monitored for 90 seconds using a spectrophotometer and the rate constants are determined from the absorbance versus time data files.

Chain of FKBP12 (P62942 whole entry, species assumed): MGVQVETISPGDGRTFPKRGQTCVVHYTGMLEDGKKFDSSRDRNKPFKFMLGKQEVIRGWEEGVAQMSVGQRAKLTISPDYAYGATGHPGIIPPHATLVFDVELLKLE

SMILES	Ki
COc1ccc(CCCCOC(=O)[C@@H]2CCCCN2C(=O)C(=O)c2cc(OC)c(OC)c(OC)c2)cc1 [Compound 25]	0.013 µM
O=C(C(=O)N1CCCC[C@H]1C(=O)OCCCCc1ccccc1)c1ccccc1 [Compound 13]	0.35 µM
O=C(C(=O)N1CCCC[C@H]1C(=O)OCc1ccccc1)c1ccccc1 [Compound 10]	1.5 µM
O=C(C(=O)N1CCCC[C@H]1C(=O)OCCCCC1CCCCC1)c1ccccc1 [Compound 15]	0.4 µM
O=C(C(=O)N1CCCC[C@H]1C(=O)OCCc1ccccc1)c1ccccc1 [Compound 14]	1.1 µM

More lines, now with the values ahead:

Ki	SMILES
35 µM	COC(=O)C(=O)N1CCCC[C@H]1C(=O)OCCCC1CCCC1 [Compound 19]
80 µM	COC(=O)C(=O)N1CCCC[C@H]1C(=O)OCc1ccccc1 [Compound 16]
3 µM	O=C(C(=O)N1CCCC[C@H]1C(=O)OCc1ccccc1)c1ccco1 [Compound 20]
0.019 µM	COc1cc(C(=O)C(=O)N2CCCC[C@H]2C(=O)OCCCCc2ccccc2)cc(OC)c1OC [Compound 23]
20 µM	COC(=O)C(=O)N1CCCC[C@H]1C(=O)OCCCC1CCCCC1 [Compound 18]
